Laboratory results published in ChEMBL document CHEMBL5727613, “Benzimidazolone and benzothiazolone compounds and their use as AMPA receptor modulators” (2020).

test: Calcium Flux Assay: This assay was used to test compounds for their ability to inhibit TARP γ8 dependent AMPA receptor activity. The AMPA receptor is a non-selective cation channel activated by glutamate. lonotropic glutamate receptors normally desensitize too rapidly to allow detectable calcium influx in a FLIPR assay (Strange et al. (2006). “Functional characterisation of homomeric ionotropic glutamate receptors GluR1-GluR6 in a fluorescence-based high throughput screening assay.” Comb Chem High Throughput Screen 9(2): 147-158). But, this desensitization is incomplete, and a substantial steady-state current remains in the sustained presence of glutamate (Cho et al. (2007). “Two families of TARP isoforms that have distinct effects on the kinetic properties of AMPA receptors and synaptic currents.” Neuron 55(6): 890-904).An in vitro assay was used to determine the potency of test compounds as inhibitors of the glutamate response of the channel formed by GluA1o-g8. To ensure a 1:1 stoichiometry of GluA1o and g8 subunits in the expressed channel, a fusion of the cDNAs for GRIA1o and CACNG8 was used. Channels expressed with this construct appear to have similar properties to channels formed by co-expression of GRIA1o with an excess of CACNG8 (Shi et al. 2009). A clonal cell line in HEK293 cells stably expressing this construct, with a geneticin selection marker, was generated for use in this assay. Cell expressing the GRIAlo-CACNG8 fusion construct were grown in a monolayer in 96- or 384-well microtiter plates. They were washed with assay buffer (135 mM NaCl, 4 mM KCl, 3 mM CaCl2), 1 mM MgCl2, 5 mM glucose, 10 mM HEPES, pH 7.4, 300 mOs) using a Biotek EL405 plate washer. The cells were then loaded with a calcium-sensitive dye (Calcium-5 or Calcium-6, Molecular Devices) and the test compounds at a range of concentrations. Calcium flux following the addition of 15 μM glutamate was monitored using a Molecular Devices FLIPR Tetra.The fluorescence in each well was normalized to the fluorescence of negative and positive control wells. […]

SMILES | IC50 [nM]
O=c1[nH]c2ccc(-c3c(Cl)cccc3C3CC3)cc2[nH]1 | 6.31
Cc1cccc(C)c1-c1ccc2[nH]c(=O)[nH]c2c1 | 158
O=c1[nH]c2ccc(-c3c(Cl)cccc3OC(F)(F)F)cc2s1 | 2.51
